Key:
ragweed = experiment: Test A postemergence; format: in vivo, Ambrosia artemisiifolia; conditions: postemergence, 10 days; for pest or weed control at 125 g/ha / pest or weed control at 500 g/ha: Ambrosia artemisiifolia, post-emergence, 240 h; for pest or weed control at 125 g/ha / pest or weed control at 500 g/ha / Plant response rating, Ragweed: 0 to 100 scale (0 no effect, 100 complete control); for pest or weed control at 125 g/ha: read-out: Ragweed plant response rating; for pest or weed control at 500 g/ha / Plant response rating, Ragweed: 500 g ai/ha, visual injury; for pest or weed control at 500 g/ha: read-out: Plant response rating, Ragweed
In short: (§1)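 Seeds in loam–sand blend received a directed preemergence soil spray of compound in non-phytotoxic solvent with surfactant; postemergence plants (2–10 cm, one- to two-leaf stage) were sprayed with the same formulation. After 10 days in greenhouse, injury was rated visually versus untreated controls, 0 (no effect) to 100 (complete control).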

ryegrass, Italian = experiment: Test A preemergence; format: in vivo, Lolium multiflorum; conditions: 0 to 100 scale; for pest or weed control at 125 g/ha / pest or weed control at 500 g/ha: Lolium multiflorum, pre-emergence, 240 h, read-out: Plant response rating, Ryegrass, Italian
In short: as §1

soybean = experiment: Test A preemergence; format: in vivo, Glycine max; conditions: 0 to 100 scale; for plant injury at 125 g/ha / plant injury at 500 g/ha: Glycine max, pre-emergence, 240 h, read-out: Plant response rating, Soybean
In short: as §1

barnyardgrass = experiment: Test A postemergence; format: in vivo, Echinochloa crusgalli; conditions: postemergence, 10 days; for Barnyardgrass plant response rating: 125 g ai/ha, 0 to 100 scale, 0 no effect, 100 complete control; for Plant response rating, Barnyardgrass: 500 g ai/ha, visual injury, 0 to 100 scale (0 no effect, 100 complete control)
In short: as §1

horseweed = experiment: Test A postemergence; format: in vivo, Erigeron canadensis; conditions: postemergence, 10 days; for pest or weed control at 125 g/ha / pest or weed control at 500 g/ha: Erigeron canadensis, post-emergence, 240 h; for pest or weed control at 125 g/ha: read-out: Horseweed plant response rating; for pest or weed control at 500 g/ha: read-out: Plant response rating, Horseweed
In short: as §1

blackgrass [1] = experiment: Test A postemergence; format: in vivo, Alopecurus myosuroides; conditions: postemergence, 10 days; for pest or weed control at 125 g/ha / pest or weed control at 500 g/ha: Alopecurus myosuroides, post-emergence, 240 h; for pest or weed control at 125 g/ha / Blackgrass plant response rating: 125 g ai/ha; for pest or weed control at 125 g/ha / pest or weed control at 500 g/ha / Plant response rating, Blackgrass: 0 to 100 scale (0 no effect, 100 complete control); for pest or weed control at 125 g/ha: read-out: Blackgrass plant response rating; for pest or weed control at 500 g/ha / Plant response rating, Blackgrass: 500 g ai/ha, visual injury; for pest or weed control at 500 g/ha: read-out: Plant response rating, Blackgrass; for Blackgrass plant response rating: 0 to 100 scale, 0 no effect, 100 complete control
In short: as §1

blackgrass [2] = experiment: Test A preemergence; format: in vivo, Alopecurus myosuroides; conditions: 0 to 100 scale; for pest or weed control at 125 g/ha / pest or weed control at 500 g/ha: Alopecurus myosuroides, pre-emergence, 240 h, read-out: Plant response rating, Blackgrass
In short: as §1

sedge, umbrella = experiment: Test B flooded paddy test; format: in vivo, Cyperus difformis; conditions: 250 g ai/ha, Flood, 13 days, 0 to 100 scale (0 no effect, 100 complete control); for pest or weed control at 250 g/ha: Cyperus difformis, 312 h, read-out: Plant response rating, Sedge, Umbrella
In short: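 Percent weed or crop control, judged by eye on a 0–100 scale 13 days post-treatment, reflects compound added to a 3 cm flood maintained over 2-leaf plants in the greenhouse. Missing entries are marked with a dash.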

kochia = experiment: Test A preemergence; format: in vivo, Bassia scoparia; conditions: 0 to 100 scale; for pest or weed control at 125 g/ha / pest or weed control at 500 g/ha: Bassia scoparia, pre-emergence, 240 h, read-out: Plant response rating, Kochia
In short: as §1

oat, wild = experiment: Test A postemergence; format: in vivo, Avena fatua; conditions: postemergence, 10 days; for pest or weed control at 125 g/ha / pest or weed control at 500 g/ha: Avena fatua, post-emergence, 240 h; for pest or weed control at 125 g/ha / Oat, Wild plant response rating: 125 g ai/ha; for pest or weed control at 125 g/ha / pest or weed control at 500 g/ha / Plant response rating, Oat, Wild: 0 to 100 scale (0 no effect, 100 complete control); for pest or weed control at 125 g/ha: read-out: Oat, Wild plant response rating; for pest or weed control at 500 g/ha / Plant response rating, Oat, Wild: 500 g ai/ha, visual injury; for pest or weed control at 500 g/ha: read-out: Plant response rating, Oat, Wild; for Oat, Wild plant response rating: 0 to 100 scale, 0 no effect, 100 complete control
In short: as §1

pigweed, palmer [3] = experiment: Test A preemergence; format: in vivo, Amaranthus palmeri; conditions: 0 to 100 scale; for pest or weed control at 125 g/ha / pest or weed control at 500 g/ha: Amaranthus palmeri, pre-emergence, 240 h, read-out: Plant response rating, Pigweed, Palmer
In short: as §1

pigweed, palmer [4] = experiment: Test A postemergence; format: in vivo, Amaranthus palmeri; conditions: postemergence, 10 days; for pest or weed control at 125 g/ha / pest or weed control at 500 g/ha: Amaranthus palmeri, post-emergence, 240 h; for pest or weed control at 125 g/ha: read-out: Pigweed, Palmer plant response rating; for pest or weed control at 500 g/ha: read-out: Plant response rating, Pigweed, Palmer
In short: as §1

[5] = 500 g ai/ha, visual injury after 10 days, 0 is no effect, 100 is complete control
[6] = 125 g ai/ha, 0 to 100 scale (0 no effect, 100 complete control)
[7] = 500 g ai/ha, visual injury, 0 to 100 scale (0 no effect, 100 complete control)
[8] = 125 g ai/ha, 0 to 100 scale, 0 no effect, 100 complete control

C[C@H]1CN(C(=S)c2cccc(-n3cncn3)c2)c2cccc(Cl)c2O1 [Compound 139, [(2S)-8-Chloro-2,3-dihydro-2-methyl-4H-1,4-benzoxazin-4-yl][3-(1H-1,2,4-triazol-1-yl)phenyl]methanethione]
pest or weed control at 125 g/ha (ragweed; 125 g ai/ha): 0% | pest or weed control at 500 g/ha (ragweed): 30% | pest or weed control at 125 g/ha (ryegrass, Italian; 125 g ai/ha): 50% | pest or weed control at 500 g/ha (ryegrass, Italian; [5]): 80% | plant injury at 125 g/ha (soybean; 125 g ai/ha): 0% | plant injury at 500 g/ha (soybean; [5]): 40% | Barnyardgrass plant response rating (barnyardgrass): 20 | Plant response rating, Barnyardgrass (barnyardgrass): 70 | pest or weed control at 125 g/ha (horseweed; [6]): 0% | pest or weed control at 500 g/ha (horseweed; [7]): 0% | pest or weed control at 125 g/ha (blackgrass [1]): 80% | pest or weed control at 500 g/ha (blackgrass [1]): 90% | pest or weed control at 125 g/ha (blackgrass [2]; 125 g ai/ha): 70% | pest or weed control at 500 g/ha (blackgrass [2]; [5]): 90% | pest or weed control at 250 g/ha (sedge, umbrella): 75% | pest or weed control at 125 g/ha (kochia; 125 g ai/ha): 0% | pest or weed control at 500 g/ha (kochia; [5]): 0% | pest or weed control at 125 g/ha (oat, wild): 0% | pest or weed control at 500 g/ha (oat, wild): 60% | pest or weed control at 125 g/ha (pigweed, palmer [3]; 125 g ai/ha): 40% | pest or weed control at 500 g/ha (pigweed, palmer [3]; [5]): 100% | pest or weed control at 125 g/ha (pigweed, palmer [4]; [6]): 40% | pest or weed control at 500 g/ha (pigweed, palmer [4]; [7]): 80%

CC(C)c1ncn(-c2cc(C(=O)N3C[C@H](C)Oc4c(Cl)cccc43)c3ccccc3c2)n1 [Compound 145]
Ragweed plant response rating (ragweed; [8]): 0 | Plant response rating, Ragweed (ragweed): 10 | Plant response rating, Ryegrass, Italian (ryegrass, Italian; 125 g ai/ha): 40 | pest or weed control at 500 g/ha (ryegrass, Italian; [5]): 90% | Plant response rating, Soybean (soybean; 125 g ai/ha): 0 | Plant response rating, Soybean (soybean; [5]): 0 | Barnyardgrass plant response rating (barnyardgrass): 20 | Plant response rating, Barnyardgrass (barnyardgrass): 20 | Horseweed plant response rating (horseweed; [8]): 0 | pest or weed control at 500 g/ha (horseweed; [7]): 0% | Blackgrass plant response rating (blackgrass [1]): 40 | Plant response rating, Blackgrass (blackgrass [1]): 70 | Plant response rating, Blackgrass (blackgrass [2]; 125 g ai/ha): 40 | pest or weed control at 500 g/ha (blackgrass [2]; [5]): 80% | pest or weed control at 250 g/ha (sedge, umbrella): 0% | Plant response rating, Kochia (kochia; 125 g ai/ha): 70 | pest or weed control at 500 g/ha (kochia; [5]): 50% | Oat, Wild plant response rating (oat, wild): 10 | Plant response rating, Oat, Wild (oat, wild): 30 | Plant response rating, Pigweed, Palmer (pigweed, palmer [3]; 125 g ai/ha): 80 | pest or weed control at 500 g/ha (pigweed, palmer [3]; [5]): 100% | Pigweed, Palmer plant response rating (pigweed, palmer [4]; [8]): 70 | pest or weed control at 500 g/ha (pigweed, palmer [4]; [7]): 90%

CC(C)c1ncn(-c2cc(C(=O)N3C[C@H](C)Oc4c(Cl)cccc43)c3ccccc3c2)n1 [Compound 146]
Plant response rating, Ragweed (ragweed): 0 | pest or weed control at 125 g/ha (ragweed; 125 g ai/ha): 0% | Plant response rating, Ryegrass, Italian (ryegrass, Italian; [5]): 70 | pest or weed control at 125 g/ha (ryegrass, Italian; 125 g ai/ha): 30% | Plant response rating, Soybean (soybean; [5]): 20 | plant injury at 125 g/ha (soybean; 125 g ai/ha): 0% | Barnyardgrass plant response rating (barnyardgrass): 20 | Plant response rating, Barnyardgrass (barnyardgrass): 20 | Plant response rating, Horseweed (horseweed; [7]): 0 | pest or weed control at 125 g/ha (horseweed; [6]): 0% | Blackgrass plant response rating (blackgrass [1]): 10 | Plant response rating, Blackgrass (blackgrass [1]): 20 | Plant response rating, Blackgrass (blackgrass [2]; 125 g ai/ha): 70 | Plant response rating, Blackgrass (blackgrass [2]; [5]): 90 | Plant response rating, Sedge, Umbrella (sedge, umbrella): 0 | Plant response rating, Kochia (kochia; 125 g ai/ha): 10 | Plant response rating, Kochia (kochia; [5]): 30 | Oat, Wild plant response rating (oat, wild): 0 | Plant response rating, Oat, Wild (oat, wild): 10 | Plant response rating, Pigweed, Palmer (pigweed, palmer [3]; [5]): 100 | pest or weed control at 125 g/ha (pigweed, palmer [3]; 125 g ai/ha): 90% | Plant response rating, Pigweed, Palmer (pigweed, palmer [4]; [7]): 70 | pest or weed control at 125 g/ha (pigweed, palmer [4]; [6]): 70%

CC(C)c1ncn(-c2cc3c(c(C(=O)N4C[C@H](C)Oc5c(Cl)cccc54)c2)OCC3)n1 [Compound 147]
pest or weed control at 125 g/ha (ragweed; 125 g ai/ha): 0% | pest or weed control at 500 g/ha (ragweed): 30% | pest or weed control at 125 g/ha (ryegrass, Italian; 125 g ai/ha): 90% | pest or weed control at 500 g/ha (ryegrass, Italian; [5]): 100% | plant injury at 125 g/ha (soybean; 125 g ai/ha): 0% | plant injury at 500 g/ha (soybean; [5]): 100% | Barnyardgrass plant response rating (barnyardgrass): 10 | Plant response rating, Barnyardgrass (barnyardgrass): 70 | pest or weed control at 125 g/ha (horseweed; [6]): 0% | pest or weed control at 500 g/ha (horseweed; [7]): 0% | pest or weed control at 125 g/ha (blackgrass [1]): 70% | pest or weed control at 500 g/ha (blackgrass [1]): 100% | pest or weed control at 125 g/ha (blackgrass [2]; 125 g ai/ha): 20% | pest or weed control at 500 g/ha (blackgrass [2]; [5]): 90% | pest or weed control at 250 g/ha (sedge, umbrella): 95% | pest or weed control at 125 g/ha (kochia; 125 g ai/ha): 70% | pest or weed control at 500 g/ha (kochia; [5]): 90% | pest or weed control at 125 g/ha (oat, wild): 30% | pest or weed control at 500 g/ha (oat, wild): 80% | pest or weed control at 125 g/ha (pigweed, palmer [3]; 125 g ai/ha): 90% | pest or weed control at 500 g/ha (pigweed, palmer [3]; [5]): 100% | pest or weed control at 125 g/ha (pigweed, palmer [4]; [6]): 80% | pest or weed control at 500 g/ha (pigweed, palmer [4]; [7]): 90%

— patent US20260262643A1, “HERBICIDAL BENZOXAZINES” (FMC CORPORATION, priority 2022, published 2026)
